Several values for one entry are separate records, joined by “and”; a condition that tells them apart may be missing. Equal values may be shown once. Inconclusive results and toxic doses are left out. How the source made its calls: active means survival T/C of 150% or more; inactive means T/C below 125% in these data.
Tested on: CD2F1 mice, L1210 leukemia ip, survival T/C
Assay: NCI In Vivo Anticancer Drug Screen. Data for tumor model L1210 Leukemia (intraperitoneal) in CD2F1 (CDF1) mice
Details: higher = longer survival
Procedure, shortened: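 In this screen, transplantable tumors were grown in mice given either the compound or its vehicle. Results were expressed as the treated measurement relative to the control measurement.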

[1] = endpoint: mean survival time, dose: 12.5 mg/kg/injection, schedule: Q01DX009 (ip), vehicle: saline with Tween-80
[2] = endpoint: mean survival time, dose: 25.0 mg/kg/injection, schedule: Q01DX009 (ip), vehicle: saline with Tween-80
[3] = endpoint: mean survival time, dose: 100.0 mg/kg/injection, schedule: Q04DX003 (ip), vehicle: saline with Tween-80
[4] = endpoint: mean survival time, dose: 200.0 mg/kg/injection, schedule: Q04DX003 (ip), vehicle: saline with Tween-80
[5] = endpoint: mean survival time, dose: 400.0 mg/kg/injection, schedule: Q04DX003 (ip), vehicle: saline with Tween-80
[6] = endpoint: mean survival time, dose: 100.0 mg/kg/injection, schedule: Q04DX002 (ip), vehicle: saline with Tween-80
[7] = endpoint: mean survival time, dose: 100.0 mg/kg/injection, schedule: Q01DX009 (ip), vehicle: saline with Tween-80
[8] = endpoint: mean survival time, dose: 200.0 mg/kg/injection, schedule: Q01DX009 (ip), vehicle: saline with Tween-80
[9] = endpoint: mean survival time, dose: 50.0 mg/kg/injection, schedule: Q04DX002 (ip), vehicle: saline with Tween-80
[10] = endpoint: mean survival time, dose: 200.0 mg/kg/injection, schedule: Q04DX002 (ip), vehicle: saline with Tween-80
[11] = endpoint: mean survival time, dose: 50.0 mg/kg/injection, schedule: Q01DX009 (ip), vehicle: saline with Tween-80

Measured: T/C

CCOC(=O)C1C(=O)N(C)C(=O)N1c1ccccc1 (centres undefined)
inactive: endpoint: mean survival time, dose: 12.5 mg/kg/injection, schedule: Q01DX009 (ip), vehicle: other 98 % of control | endpoint: mean survival time, dose: 25.0 mg/kg/injection, schedule: Q01DX009 (ip), vehicle: other 90 % of control | endpoint: mean survival time, dose: 50.0 mg/kg/injection, schedule: Q01DX009 (ip), vehicle: other 87 % of control | endpoint: mean survival time, dose: 100.0 mg/kg/injection, schedule: Q01DX009 (ip), vehicle: other 93 % of control | endpoint: mean survival time, dose: 200.0 mg/kg/injection, schedule: Q01DX009 (ip), vehicle: other 87 % of control

CC(=O)Nc1nc(Br)c2ccccc2c1-c1ccc(N(CCCl)CCCl)cc1
inactive: endpoint: mean survival time, dose: 3.13 mg/kg/injection, schedule: Q04DX003 (ip), vehicle: DMSO 104 % of control | endpoint: mean survival time, dose: 6.25 mg/kg/injection, schedule: Q04DX003 (ip), vehicle: DMSO 102 % of control | endpoint: mean survival time, dose: 12.5 mg/kg/injection, schedule: Q04DX003 (ip), vehicle: DMSO 101 % of control | endpoint: mean survival time, dose: 25.0 mg/kg/injection, schedule: Q04DX003 (ip), vehicle: DMSO 98 % of control

O=C(CCl)Nc1cc(C(F)(F)F)ccc1Cl
inactive: endpoint: mean survival time, dose: 6.25 mg/kg/injection, schedule: Q01DX009 (ip), vehicle: saline with Tween-80 101 % of control | [1] 101 % of control | [2] 104 % of control | [3] 104 % of control | [4] 97 % of control | [5] 97 % of control

O=S(=O)([O-])O.O=S(O)S(=O)O.[Co+3].[NH2-].[NH2-].[NH2-].[NH2-].[NH2-]
inactive: [6] 97 % of control

Cc1ccc(S(=O)(=O)O/N=C2/CCSc3ccccc32)cc1
inactive: endpoint: mean survival time, dose: 100.0 mg/kg/injection, schedule: Q01DX001 (ip), vehicle: acetone 100 % of control | endpoint: mean survival time, dose: 200.0 mg/kg/injection, schedule: Q01DX001 (ip), vehicle: acetone 97 % of control | endpoint: mean survival time, dose: 400.0 mg/kg/injection, schedule: Q01DX001 (ip), vehicle: acetone 97 % of control

C1CCC2CCCN2CC1 (centres undefined)
inactive: [1] 95 % of control | endpoint: mean survival time, dose: 12.5 mg/kg/injection, schedule: Q04DX003 (ip), vehicle: acetone 94 % of control | [2] 94 % of control | endpoint: mean survival time, dose: 25.0 mg/kg/injection, schedule: Q04DX003 (ip), vehicle: acetone 92 % of control | endpoint: mean survival time, dose: 50.0 mg/kg/injection, schedule: Q04DX003 (ip), vehicle: acetone 100 % of control

CC(NNC(=S)N(C)C1CCCCC1)c1cc2ccccc2cn1 (centres undefined)
inactive: endpoint: median survival time, dose: 12.5 mg/kg/injection, schedule: Q01DX005 (ip), vehicle: saline with Tween-80 103 % of control | endpoint: median survival time, dose: 12.5 mg/kg/injection, schedule: Q01DX005 (ip), vehicle: saline 97 % of control | endpoint: median survival time, dose: 25.0 mg/kg/injection, schedule: Q01DX005 (ip), vehicle: saline with Tween-80 120 % of control | endpoint: median survival time, dose: 25.0 mg/kg/injection, schedule: Q01DX005 (ip), vehicle: saline 102 % of control and 109 % of control | endpoint: median survival time, dose: 50.0 mg/kg/injection, schedule: Q01DX005 (ip), vehicle: saline with Tween-80 90 % of control | endpoint: median survival time, dose: 50.0 mg/kg/injection, schedule: Q01DX005 (ip), vehicle: saline 113 % of control and 114 % of control

CCCCCNC(=O)Nc1cccc(Cl)c1C
inactive: [7] 94 % of control | [3] 88 % of control | [8] 92 % of control | [4] 92 % of control | [5] 92 % of control

CC(=O)C(C(=N)C#N)C(C)=O
inactive: [9] 101 % of control | [6] 89 % of control | [10] 89 % of control

CC(=O)OC1CCC2(C)C(=CCC3C2CCC2(C)C(C(C)CCC(=O)O)CCC32)C1 (centres undefined)
inactive: [7] 95 % of control | [8] 95 % of control | endpoint: mean survival time, dose: 400.0 mg/kg/injection, schedule: Q01DX009 (ip), vehicle: saline with Tween-80 96 % of control

Cc1cc(=O)[nH]c2cc(Br)ccc12
inactive: endpoint: mean survival time, dose: 100.0 mg/kg/injection, schedule: Q01DX001 (ip), vehicle: saline with Tween-80 91 % of control | endpoint: mean survival time, dose: 200.0 mg/kg/injection, schedule: Q01DX001 (ip), vehicle: saline with Tween-80 89 % of control | endpoint: mean survival time, dose: 400.0 mg/kg/injection, schedule: Q01DX001 (ip), vehicle: saline with Tween-80 87 % of control

O=C1c2ccccc2CCC1(Br)C(Br)c1ccccc1 (centres undefined)
inactive: endpoint: mean survival time, dose: 100.0 mg/kg/injection, schedule: Q01DX009 (ip), vehicle: Klucel (hydroxypropylcellulose) (HPC) 100 % of control | endpoint: mean survival time, dose: 200.0 mg/kg/injection, schedule: Q01DX009 (ip), vehicle: Klucel (hydroxypropylcellulose) (HPC) 100 % of control | endpoint: mean survival time, dose: 400.0 mg/kg/injection, schedule: Q01DX009 (ip), vehicle: Klucel (hydroxypropylcellulose) (HPC) 96 % of control

CCOC(=O)NC(C#N)=C(Cl)Cl
inactive: [6] 114 % of control | [10] 88 % of control | endpoint: mean survival time, dose: 400.0 mg/kg/injection, schedule: Q04DX002 (ip), vehicle: saline with Tween-80 100 % of control

CP1(=S)CCC(O)(c2ccccc2)CC1 (centres undefined)
inactive: [2] 101 % of control | endpoint: mean survival time, dose: 25.0 mg/kg/injection, schedule: Q04DX002 (ip), vehicle: saline with Tween-80 91 % of control | [11] 89 % of control | [9] 91 % of control | [7] 97 % of control | [6] 95 % of control

COCC1C(N)C(C)NC(Cl)C1C#N (centres undefined)
inactive: [7] 97 % of control | [3] 95 % of control | [8] 97 % of control | [4] 100 % of control | [5] 100 % of control

CCOC(=O)c1ccc(NN=NCCF)cc1
inactive: endpoint: median survival time, dose: 3.12 mg/kg/injection, schedule: Q01DX009 (ip), vehicle: distilled water + Tween-80 114 % of control and 96 % of control | endpoint: median survival time, dose: 3.13 mg/kg/injection, schedule: Q01DX009 (ip), vehicle: distilled water + Tween-80 104 % of control | endpoint: median survival time, dose: 6.25 mg/kg/injection, schedule: Q01DX009 (ip), vehicle: distilled water + Tween-80 122 % of control and 98 % of control (2×) | endpoint: median survival time, dose: 12.5 mg/kg/injection, schedule: Q01DX009 (ip), vehicle: distilled water + Tween-80 92 % of control and 96 % of control | endpoint: median survival time, dose: 50.0 mg/kg/injection, schedule: Q01DX009 (ip), vehicle: distilled water + Tween-80 94 % of control

NC(=O)c1ccccc1NC(=O)Nc1ccc(Cl)c(C(F)(F)F)c1
inactive: [11] 87 % of control | [7] 96 % of control | [8] 93 % of control

Source: PubChem BioAssay AID256 (DTP/NCI, 2004)
